Results as given in patent publication US20020051978A1, “Methods and compositions for the identification, assessment, prevention and therapy of human cancers” (priority 2000, published 2002).
Where two headings read alike, the source gives them in different places.

What was measured:
[1] = system: 60 cancer cell lines (NCI 60 cancer cell line series); test: NCI-DTP in vitro cancer screen, sulforhodamine B (SRB) growth inhibition, 48 hour exposure; assay type: cell-based, human; design: key to sensitivity class Ovarian OVCAR-8 CL6005 / sensitivity class Ovarian SK-OV-3 CL6011 / sensitivity class Prostate DU-145 CL11003 / sensitivity class NSCLC NCI-H522 CL1003 / sensitivity class Ovarian IGROV1 CL6010 / sensitivity class Ovarian OVCAR-4 CL6002 / sensitivity class Prostate PC-3(I) CL11001 / sensitivity class Renal A498 CL9013 / sensitivity class Renal SN12C CL9008: sensitivity class: 1 = Low, 2 = Medium, 3 = High
Procedure, shortened: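 Values come from the NCI-DTP screen database: -log GI50, the concentration giving 50% growth inhibition, derived from SRB cell-mass dose-response curves. Each line seeded at its own density, treated day 1 at five ten-fold-spaced doses in duplicate wells, stained after 48 h.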

[2] = system: 60 cancer cell lines (NCI 60 cancer cell line series); conditions: cited from earlier work

COc1cc([C@@H]2c3cc4c(cc3[C@@H](O[C@@H]3O[C@@H]5CO[C@@H](C)O[C@H]5[C@H](O)[C@H]3O)[C@H]3COC(=O)[C@H]23)OCO4)cc(OC)c1O [Etoposide]
6.1: -Log (GI50) ([2]; Breast HS-578T CL5006) | -Log (GI50) ([2]; Melanoma M14 (CL10014)) | -Log (GI50) ([2]; Prostate DU-145 CL11003) | -Log (GI50) ([2]; Renal ACHN CL9023)
3: classification of cell line as Low(1), Medium(2) or High(3) sensitivity to compound ([1]; Breast HS-578T CL5006) | classification of cell line as Low(1), Medium(2) or High(3) sensitivity to compound ([1]; Breast MDA-N CL5012) | classification of cell line as Low(1), Medium(2) or High(3) sensitivity to compound ([1]; Breast T-47D (CL5014)) | classification of cell line as Low(1), Medium(2) or High(3) sensitivity to compound ([1]; Leukemia MOLT-4 (CL7006)) | classification of cell line as Low(1), Medium(2) or High(3) sensitivity to compound ([1]; Leukemia SR CL7019) | classification of cell line as Low(1), Medium(2) or High(3) sensitivity to compound ([1]; Melanoma M14 (CL10014)) | sensitivity class NSCLC NCI-H460 CL1021 ([1]; cell line NSCLC NCI-H460, CL1021) | sensitivity class Prostate DU-145 CL11003 ([1]; cell line Prostate DU-145, CL11003) | sensitivity class Prostate PC-3(I) CL11001 ([1]; cell line Prostate PC-3(I), CL11001) | sensitivity class Renal ACHN CL9023 ([1]; cell line Renal ACHN, CL9023)
5.1: -Log (GI50) ([2]; NCSLC NCI-H522 CL1003) | -Log (GI50) ([2]; NSCLC NCI-H23(I) CL1001)
4.3: -Log (GI50) ([2]; Ovarian OVCAR-5 CL6003)
5.3: -Log (GI50) ([2]; Melanoma LOX IMVI CL10001) | -Log (GI50) ([2]; Renal TK10 CL9024)
5.4: -Log (GI50) ([2]; Breast MCF7(I) (CL5001)) | -Log (GI50) ([2]; Leukemia RPMI-8226(I) (CL7010))
6.7: -Log (GI50) ([2]; Leukemia SR CL7019)
5.2: -Log (GI50) ([2]; CNS SF-539 CL12016) | -Log (GI50) ([2]; CNS U251(I) CL12009) | -Log (GI50) ([2]; Renal CAKI-1 CL9015)
4.6: -Log (GI50) ([2]; Colon HCT-116 (CL4003)) | -Log (GI50) ([2]; Leukemia K562(I) CL7005)
2: classification of cell line as Low(1), Medium(2) or High(3) sensitivity to compound ([1]; Breast BT-549 (CL5013)) | classification of cell line as Low(1), Medium(2) or High(3) sensitivity to compound ([1]; Breast MCF7(I) (CL5001)) | classification of cell line as Low(1), Medium(2) or High(3) sensitivity to compound ([1]; Breast MDA-MB-231 CL5005) | classification of cell line as Low(1), Medium(2) or High(3) sensitivity to compound ([1]; Breast MDA-MB-435 (CL5011)) | classification of cell line as Low(1), Medium(2) or High(3) sensitivity to compound ([1]; CNS SF-268 CL12014) | classification of cell line as Low(1), Medium(2) or High(3) sensitivity to compound ([1]; CNS SF-295 CL12015) | classification of cell line as Low(1), Medium(2) or High(3) sensitivity to compound ([1]; CNS SF-539 CL12016) | classification of cell line as Low(1), Medium(2) or High(3) sensitivity to compound ([1]; CNS SNB-19 (CL12002)) | classification of cell line as Low(1), Medium(2) or High(3) sensitivity to compound ([1]; CNS SNB-75(I) CL12005) | classification of cell line as Low(1), Medium(2) or High(3) sensitivity to compound ([1]; CNS U251(I) CL12009) | classification of cell line as Low(1), Medium(2) or High(3) sensitivity to compound ([1]; Colon HCC-2998 (CL4002)) | classification of cell line as Low(1), Medium(2) or High(3) sensitivity to compound ([1]; Colon HCT-15 CL4015) | classification of cell line as Low(1), Medium(2) or High(3) sensitivity to compound ([1]; Colon HCT-116 (CL4003)) | classification of cell line as Low(1), Medium(2) or High(3) sensitivity to compound ([1]; Colon KM12 (CL4017)) | classification of cell line as Low(1), Medium(2) or High(3) sensitivity to compound ([1]; Colon SW-620 (CL4009)) | classification of cell line as Low(1), Medium(2) or High(3) sensitivity to compound ([1]; Leukemia CCRF-CEM(I) (CL7003)) | classification of cell line as Low(1), Medium(2) or High(3) sensitivity to compound ([1]; Leukemia HL-60(I) (CL7008)) | classification of cell line as Low(1), Medium(2) or High(3) sensitivity to compound ([1]; Leukemia K562(I) CL7005) | classification of cell line as Low(1), Medium(2) or High(3) sensitivity to compound ([1]; Leukemia RPMI-8226(I) (CL7010)) | classification of cell line as Low(1), Medium(2) or High(3) sensitivity to compound ([1]; Melanoma LOX IMVI CL10001) | classification of cell line as Low(1), Medium(2) or High(3) sensitivity to compound ([1]; Melanoma MALME-3M CL10002) | sensitivity class NSCLC NCI-H23(I) CL1001 ([1]; cell line NSCLC NCI-H23(I), CL1001) | sensitivity class NSCLC NCI-H522 CL1003 ([1]; cell line NSCLC NCI-H522, CL1003) | sensitivity class Ovarian OVCAR-8 CL6005 ([1]; cell line Ovarian OVCAR-8, CL6005) | sensitivity class Ovarian SK-OV-3 CL6011 ([1]; cell line Ovarian SK-OV-3, CL6011) | sensitivity class Renal 786-O CL9018 ([1]; cell line Renal 786-O, CL9018) | sensitivity class Renal A498 CL9013 ([1]; cell line Renal A498, CL9013) | sensitivity class Renal CAKI-1 CL9015 ([1]; cell line Renal CAKI-1, CL9015) | sensitivity class Renal RXF-393 CL9016 ([1]; cell line Renal RXF-393, CL9016) | sensitivity class Renal SN12C CL9008 ([1]; cell line Renal SN12C, CL9008) | sensitivity class Renal TK10 CL9024 ([1]; cell line Renal TK10, CL9024)
5.8: -Log (GI50) ([2]; Breast MDA-MB-231 CL5005)
1: classification of cell line as Low(1), Medium(2) or High(3) sensitivity to compound ([1]; Breast MCF7/ADRr (CL5002)) | classification of cell line as Low(1), Medium(2) or High(3) sensitivity to compound ([1]; Colon COLO-250 CL4010) | classification of cell line as Low(1), Medium(2) or High(3) sensitivity to compound ([1]; Colon HT29(I) CL4001) | sensitivity class NSCLC NCI-H332M CL1017 ([1]; cell line NSCLC NCI-H332M, CL1017) | sensitivity class Ovarian IGROV1 CL6010 ([1]; cell line Ovarian IGROV1, CL6010) | sensitivity class Ovarian OVCAR-3 CL6001 ([1]; cell line Ovarian OVCAR-3, CL6001) | sensitivity class Ovarian OVCAR-4 CL6002 ([1]; cell line Ovarian OVCAR-4, CL6002) | sensitivity class Ovarian OVCAR-5 CL6003 ([1]; cell line Ovarian OVCAR-5, CL6003) | sensitivity class Renal UO-31 CL9004 ([1]; cell line Renal UO-31, CL9004)
5.0: -Log (GI50) ([2]; CNS SF-295 CL12015) | -Log (GI50) ([2]; Renal SN12C CL9008)
4.7: -Log (GI50) ([2]; Colon HCC-2998 (CL4002)) | -Log (GI50) ([2]; Melanoma MALME-3M CL10002) | -Log (GI50) ([2]; Renal A498 CL9013)
4.2: -Log (GI50) ([2]; Colon COLO-250 CL4010) | -Log (GI50) ([2]; Colon HT29(I) CL4001) | -Log (GI50) ([2]; Ovarian IGROV1 CL6010) | -Log (GI50) ([2]; Ovarian OVCAR-3 CL6001)
6.2: -Log (GI50) ([2]; Prostate PC-3(I) CL11001)
4.5: -Log (GI50) ([2]; Breast MDA-MB-435 (CL5011)) | -Log (GI50) ([2]; Colon HCT-15 CL4015) | -Log (GI50) ([2]; Colon KM12 (CL4017)) | -Log (GI50) ([2]; Ovarian SK-OV-3 CL6011)
3.9: -Log (GI50) ([2]; Breast MCF7/ADRr (CL5002))
5.9: -Log (GI50) ([2]; Renal 786-O CL9018)
5.7: -Log (GI50) ([2]; Leukemia HL-60(I) (CL7008))
3.8: -Log (GI50) ([2]; NSCLC NCI-H332M CL1017) | -Log (GI50) ([2]; Ovarian OVCAR-4 CL6002)
4.8: -Log (GI50) ([2]; CNS SF-268 CL12014) | -Log (GI50) ([2]; CNS SNB-19 (CL12002)) | -Log (GI50) ([2]; CNS SNB-75(I) CL12005) | -Log (GI50) ([2]; Ovarian OVCAR-8 CL6005) | -Log (GI50) ([2]; Renal RXF-393 CL9016)
4.9: -Log (GI50) ([2]; Colon SW-620 (CL4009))
5.6: -Log (GI50) ([2]; Breast BT-549 (CL5013)) | -Log (GI50) ([2]; Leukemia CCRF-CEM(I) (CL7003))
6.0: -Log (GI50) ([2]; Breast MDA-N CL5012) | -Log (GI50) ([2]; Breast T-47D (CL5014)) | -Log (GI50) ([2]; Leukemia MOLT-4 (CL7006)) | -Log (GI50) ([2]; NSCLC NCI-H460 CL1021)
4.1: -Log (GI50) ([2]; Renal UO-31 CL9004)
